Patent US6610702B2, “Ammonium salts of inositol hexaphosphate, and uses thereof” (GMP Oxycell, Inc., priority 2000, dated 2003)
Where a name gives a salt, the structure may show the parent alone. Read-outs that look alike come from different tables or passages of the source. Each block holds one molecule with its values, some of them ahead of it.

Columns and labels:
[1] = 1-octanol/aqueous phase partition coefficients of IHP salts measured by 31P-NMR; type: physicochemical
Description: Partition coefficients measurements. We synthesized a first series of IHP derivatives, ionically associated to different aliphatic and aromatic amines as well as amino-esters. Taking advantage of the 6 phosphate groups present in the IHP molecule, we measured, by ^31P-NMR, the partition coefficients of IHP salts between a 1-octanol phase and two different aqueous phases: water and human serum. In FIG. 11 are represented the structures of the different amines preassociated to IHP and the corresponding partition coefficients Kow and Kos. These coefficients are measured after equilibration, at a concentration of 30 mM, close to the typical concentration employed for the biological evaluations (the standard concentration used for O2-dissociation curve measurements is 22 mM).
Choice of the aqueous phases. […] To be even closer to physiological conditions, we pushed this investigation further by measuring 1-octanol/human serum partition coefficients Kos. […] Therefore, we only measured Kos's when Kow values were significant. To illustrate this observation we compared the partitions of 2 IHP derivatives, SV75 and SV131, in different aqueous systems: water, artificial serum (for its composition, see the Experimental section) without and with albumin, and human serum.
Human serum was purchased at the “Centre de Transfusion Sanguine de Strasbourg”. Artificial serum was based on blood composition : [Na^+]=140 mM, [Mg^2+]=1 mM, [K^+]=5 mM, [Ca^2+]=1 mM, [Cl^−]=106 mM, [PO4^3−]=1 mM, [SO4^2−]=0.5 mM, [CO3^2−]=30 mM, [Br^−]=0.5 mM, bovine serum albumin (fraction V, >98%) 30 g.l^−1, pH=7.41.
Partition coefficients. […] 1 ml of 1-octanol was then added and each sample was shaken at 36 rpm during 12 hours. The equilibrated biphasic solutions were centrifuged for 2 hours at 3000 rpm. 350 μl of the octanolic phase was first taken off with a syringe and put directly in the NMR tube. 350 μl of the aqueous phase was then taken off. ^31P-NMR spectra were performed on a Bruker AC-300 apparatus. An external standard (triphenylphosphine oxide, 60 mM in d6-DMSO) was placed inside the NMR tubes to allow both the locking process of the apparatus and an accurate integration of IHP peaks. Partition coefficients were determined as the ratio of IHP integrations, relative to the external standard, in the octanol and aqueous phases.

whole blood [2] = experiment: P50 shift on whole blood, first library (Hb-O2 dissociation curve); type: cell-based; conditions: 220 mOsM, control IHP sodium form, 37° C.
Procedure: In FIG. 14 the different IHP derivatives have been classified by amine types, the number of cations per IHP molecule as well as the reference number are indicated beside each amine drawings. The P50 shift values have to be compared to the control experiment (underlined), corresponding to a test performed in the same conditions but with IHP, sodium form. P50 values have been measured in Professor Nicolau's laboratory in Boston (bioassay conditions: 75 μl of whole blood was incubated 2 minutes with 300 μl of a 50 mM solution of IHP derivatives. The system was then washed and 20 μl were used for measurement of the Hb-O2 dissociation curve at 37° C.). See also FIGS. 15-17 for tables of P50 values at various osmolarities of whole blood, and free hemoglobin that has been pre-incubated with various ammonium salts of inositol hexaphosphate.

whole blood [3] = experiment: P50 of whole blood pre-incubated with effector (Hemox Analyzer); type: cell-based
Procedure: Whole blood was collected from one subject. The blood was stored in a Vacutainer with Solution A (ACD) and stored at 4-8° C.
Preparation of Effector Stock: Effector stock was prepared at 100-120 mM (Molal solution) using water or Bis-Tris Buffer. Effector characteristics prior to incubation were:
Incubation: Whole blood (75-300 μL) was incubated with 200 μL of effector at 37° C. for 5-10 min. (see Summary of Results below).
(§1) Washes: After incubation of whole blood with/without effector, blood cells were washed four times with Saline buffer or HBS (BSA) by centrifugal pelleting to remove exogenous effector and to evaluate hemolysis. After final centrifugation, pellet was not resuspended.
Blood Oxygen Dissociation Reading: Blood Oxygen Dissociation of samples were determined using a Hemox Analizer Model B (TCS Medical Products Company, New Hope, Pa.). The sample chamger contained:
10-20 μL Pelleted Blood Cells incubated with Effector
All readings were made at 36.7-37.2° C. and at pH 7.28-7.32. The P50s were calculated from the Dissociation Curves compared to same day control P50.

Free Hemoglobin = Free Hemoglobin (Homo sapiens, UniProt P68871); experiment: P50 of free hemoglobin in the presence of effector; type: biochemical; conditions: fHb
red blood cells = experiment: hemolysis of red blood cells on incubation of whole blood with effector; type: cell-based
Procedure: as §1

stripped hemoglobin = stripped hemoglobin (Homo sapiens, UniProt P68871); conditions: pH 7.4, cited from earlier work
[4] = 1-octanol/water, concentration of 30 mM
[5] = 0.25 umoles EFF, control P50 16 mmHg, 37° C.

Free Hemoglobin, sequence (P68871 2-147 limits assumed): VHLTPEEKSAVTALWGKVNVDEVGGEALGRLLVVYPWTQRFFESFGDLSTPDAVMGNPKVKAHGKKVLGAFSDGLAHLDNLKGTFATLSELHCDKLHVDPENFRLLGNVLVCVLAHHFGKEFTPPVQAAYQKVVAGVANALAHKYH
Free Hemoglobin, sequence (P69905 2-142 partner limits assumed): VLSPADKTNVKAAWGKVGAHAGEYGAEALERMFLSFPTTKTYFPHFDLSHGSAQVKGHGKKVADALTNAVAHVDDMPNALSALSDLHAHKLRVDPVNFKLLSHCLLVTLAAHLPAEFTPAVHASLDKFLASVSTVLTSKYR
stripped hemoglobin, sequence (P68871 2-147 limits assumed): as the sequence (P68871 2-147 limits assumed) above
stripped hemoglobin, sequence (P69905 2-142 partner limits assumed): as the sequence (P69905 2-142 partner limits assumed) above

- Kow [1, 4]: < 10^−3
Molecule: NC1CCCC1.NC1CCCC1.NC1CCCC1.NC1CCCC1.NC1CCCC1.NC1CCCC1.NC1CCCC1.NC1CCCC1.NC1CCCC1.NC1CCCC1.NC1CCCC1.O=P(O)(O)OC1C(OP(=O)(O)O)C(OP(=O)(O)O)C(OP(=O)(O)O)C(OP(=O)(O)O)C1OP(=O)(O)O (stereo not shown) [SV78, Inositol hexaphosphate, undeca-cyclopentylammonium salt]

Molecule: NC1CCCCC1.NC1CCCCC1.NC1CCCCC1.NC1CCCCC1.NC1CCCCC1.NC1CCCCC1.NC1CCCCC1.NC1CCCCC1.NC1CCCCC1.NC1CCCCC1.NC1CCCCC1.O=P(O)(O)OC1C(OP(=O)(O)O)C(OP(=O)(O)O)C(OP(=O)(O)O)C(OP(=O)(O)O)C1OP(=O)(O)O (stereo not shown) [SV81, Inositol hexaphosphate, undeca-cyclohexylammonium salt]
- shift of the P50 value (compared to the control experiment) (whole blood [2]): 50%

Molecule: C1CCC(N2CCCCC2)CC1.C1CCC(N2CCCCC2)CC1.C1CCC(N2CCCCC2)CC1.C1CCC(N2CCCCC2)CC1.C1CCC(N2CCCCC2)CC1.C1CCC(N2CCCCC2)CC1.C1CCC(N2CCCCC2)CC1.C1CCC(N2CCCCC2)CC1.C1CCC(N2CCCCC2)CC1.O=P(O)(O)O[C@H]1[C@H](OP(=O)(O)O)[C@@H](OP(=O)(O)O)[C@H](OP(=O)(O)O)[C@@H](OP(=O)(O)O)[C@H]1OP(=O)(O)O [SV 97, Inositol hexaphosphate, nona N-cyclohexyl-piperidinium salt]
- P50 mmHg EFF:WB (whole blood [3]; effector 111 mOsM, EFF:WB 1:0.375, pH 7.2-7.3, control 41.5): 49.7 mmHg
- P50 mmHg EFF:WB (whole blood [3]; effector 343 mOsM, EFF:WB 1:1.5, pH 7.2-7.3, control 40.5): 40.0 mmHg
- P50 mmHg EFF (free hemoglobin) (Free Hemoglobin; [5]): 46.7 mmHg

- Koas (artificial serum with albumin) ([1]; 1-octanol/artificial serum with albumin, at 18 mM): 0.041
- Koa (artificial serum without albumin) ([1]; 1-octanol/artificial serum without albumin, at 18 mM): 0.088
- Kos (human serum) ([1]; 1-octanol/human serum, at 18 mM): 0.031
- Kow (water) ([1]; 1-octanol/water, at 18 mM): 0.411
Molecule: NC1CCCCCC1 [SV75, Inositol hexaphosphate, nona-cycloheptylammonium salt]

Molecule: C1CCCC(NCCCN2CCN(CCCNC3CCCCCCC3)CC2)CCC1.C1CCCC(NCCCN2CCN(CCCNC3CCCCCCC3)CC2)CCC1.C1CCCC(NCCCN2CCN(CCCNC3CCCCCCC3)CC2)CCC1.O=P(O)(O)O[C@H]1[C@H](OP(=O)(O)O)[C@@H](OP(=O)(O)O)[C@H](OP(=O)(O)O)[C@@H](OP(=O)(O)O)[C@H]1OP(=O)(O)O [SV141, Inositol hexaphosphate, tri N,N′-di-(3-(N-cyclooctyl-amino)-propyl)-piperazinium salt]
- P50 mmHg EFF:WB (whole blood [3]; effector 221 mOsM, EFF:WB 1:1.5, pH 7.1-7.2, control 25): 25.0 mmHg
- P50 mmHg EFF (free hemoglobin) (Free Hemoglobin; ratio 1:1 (2.5 mM:2.5 mM), pH 7.1-7.2, control P50 10.5 mmHg): 22.0 mmHg
- lysis of whole blood incubated with effector (red blood cells; WB, EFF:WB 1:0.375, no sufficient RBC pellet): Lyses

Molecule: NC1CCCCC1N.NC1CCCCC1N.NC1CCCCC1N.NC1CCCCC1N.NC1CCCCC1N.O=P(O)(O)O[C@H]1[C@H](OP(=O)(O)O)[C@@H](OP(=O)(O)O)[C@H](OP(=O)(O)O)[C@@H](OP(=O)(O)O)[C@H]1OP(=O)(O)O [SV 92, Inositol hexaphosphate, penta (±)-(trans)-1,2-cyclohexyldiammonium salt]
- P50 mmHg EFF:WB (whole blood [3]; effector 84 mOsM, EFF:WB 1:0.375, pH 7.2-7.3, control 41.4): 58.5 mmHg
- P50 mmHg EFF:WB (whole blood [3]; effector 336 mOsM, EFF:WB 1:1.5, pH 7.2-7.3, control 40.5): 38.7 mmHg
- P50 mmHg EFF (free hemoglobin) (Free Hemoglobin; [5]): 45.0 mmHg

- equivalents of cyclooctylammoniums required to reach a Kos value equal to 1 ([1]; constant IHP concentration 22 mM, human serum/octanol, IHP sodium salt in serum, ammonium hydrochloride in organic phase): 8 equivalents
Molecule: NC1CCCCCCC1 [cyclooctylammoniums]

Molecule: C1CCCC(NCCN(CCNC2CCCCCC2)CCNC2CCCCCC2)CC1.C1CCCC(NCCN(CCNC2CCCCCC2)CCNC2CCCCCC2)CC1.C1CCCC(NCCN(CCNC2CCCCCC2)CCNC2CCCCCC2)CC1.O=P(O)(O)O[C@H]1[C@H](OP(=O)(O)O)[C@@H](OP(=O)(O)O)[C@H](OP(=O)(O)O)[C@@H](OP(=O)(O)O)[C@H]1OP(=O)(O)O [SV137, Inositol hexaphosphate, tris tri-(N-cycloheptyl-2-amino-ethyl)-ammonium salt]
- Kos ([1]; 1-octanol/human serum, concentration of 30 mM): 0.64
- Kow [1, 4]: 2.70
- P50 mmHg EFF:WB (whole blood [3]; effector 268 mOsM, EFF:WB 1:0.375, pH 7.2-7.3, control 29.5): 32.0 mmHg

Molecule: O=C(O)C(COP(=O)(O)O)OP(=O)(O)O (stereo not shown) [2,3-Diphosphoglycerate]
- half-saturation pressure P(O2) (½) of stripped hemoglobin (stripped hemoglobin; 25 C., stripped hemoglobin alone 4.3): 12.0 mm Hg
- half-saturation pressure P(O2) (½) of stripped hemoglobin (stripped hemoglobin; 37 C., stripped hemoglobin alone 9.3): 23.7 mm Hg

Molecule: C1CCC(NCCN(CCNC2CCCCC2)CCNC2CCCCC2)CC1.C1CCC(NCCN(CCNC2CCCCC2)CCNC2CCCCC2)CC1.C1CCC(NCCN(CCNC2CCCCC2)CCNC2CCCCC2)CC1.O=P(O)(O)O[C@H]1[C@H](OP(=O)(O)O)[C@@H](OP(=O)(O)O)[C@H](OP(=O)(O)O)[C@@H](OP(=O)(O)O)[C@H]1OP(=O)(O)O [SV102, Inositol hexaphosphate, tris tri-(N-cyclohexyl-2-amino-ethyl)-ammonium salt]
- P50 mmHg EFF:WB (whole blood [3]; effector 82 mOsM, EFF:WB 1:0.375, pH 7.2-7.3, control 41.5): 75.0 mmHg
- P50 mmHg EFF:WB (whole blood [3]; effector 321 mOsM, EFF:WB 1:1.5, pH 7.2-7.3, control 40.5): 39.5 mmHg
- P50 mmHg EFF (free hemoglobin) (Free Hemoglobin; [5]): 41.0 mmHg

- P50 mmHg EFF (free hemoglobin) (Free Hemoglobin; [5]): 41.7 mmHg
Molecule: Inositol hexaphosphate, octa menthyl-1,8-diammonium salt [SV 89]

- P50 mmHg EFF (free hemoglobin) (Free Hemoglobin; [5]): 41.0 mmHg
Molecule: Inositol hexaphosphate, penta cyclohexyl-(1,3-bismethylammonium) salt [SV 94]

Molecule: CCC(C)C(N)C(=O)OC(C)(C)C.CCC(C)C(N)C(=O)OC(C)(C)C.CCC(C)C(N)C(=O)OC(C)(C)C.CCC(C)C(N)C(=O)OC(C)(C)C.CCC(C)C(N)C(=O)OC(C)(C)C.CCC(C)C(N)C(=O)OC(C)(C)C.CCC(C)C(N)C(=O)OC(C)(C)C.CCC(C)C(N)C(=O)OC(C)(C)C.O=P(O)(O)OC1C(OP(=O)(O)O)C(OP(=O)(O)O)C(OP(=O)(O)O)C(OP(=O)(O)O)C1OP(=O)(O)O (stereo not shown) [SV57, Inositol hexaphosphate, octa isoleucine-tbuthyl-ester]
- hemolysis of red blood cells (red blood cells; first library bioassay on whole blood): fast hemolysis

Molecule: NC1CCCCC1.NC1CCCCC1.NC1CCCCC1.NC1CCCCC1.NC1CCCCC1.NC1CCCCC1.NC1CCCCC1.NC1CCCCC1.NC1CCCCC1.O=P([O-])([O-])OC1C(OP(=O)([O-])O)C(OP(=O)(O)O)C(OP(=O)(O)O)C(OP(=O)(O)O)C1OP(=O)(O)O.[Na+].[Na+].[Na+] (stereo not shown) [ICP6, nona cyclohexylammonium tri sodium inositol hexaphosphate]
- P50 EFF:WB (whole blood [3]; EFF 30 mM, EFF:WB 22 mM, 220 mOsM, pH 7.23, ratio 1:0.375, control WB 27.5, 37 C.): 39 mmHg
